Data as given in PMC11193793 (Scientific Reports, 2024).
Read-outs that look alike come from different tables or passages of the source.

Legend:
[1] = biological target: T1, ovine COX-1 (Ovis aries, UniProt P05979); assay: biochemical
T1 sequence (P05979 25-600): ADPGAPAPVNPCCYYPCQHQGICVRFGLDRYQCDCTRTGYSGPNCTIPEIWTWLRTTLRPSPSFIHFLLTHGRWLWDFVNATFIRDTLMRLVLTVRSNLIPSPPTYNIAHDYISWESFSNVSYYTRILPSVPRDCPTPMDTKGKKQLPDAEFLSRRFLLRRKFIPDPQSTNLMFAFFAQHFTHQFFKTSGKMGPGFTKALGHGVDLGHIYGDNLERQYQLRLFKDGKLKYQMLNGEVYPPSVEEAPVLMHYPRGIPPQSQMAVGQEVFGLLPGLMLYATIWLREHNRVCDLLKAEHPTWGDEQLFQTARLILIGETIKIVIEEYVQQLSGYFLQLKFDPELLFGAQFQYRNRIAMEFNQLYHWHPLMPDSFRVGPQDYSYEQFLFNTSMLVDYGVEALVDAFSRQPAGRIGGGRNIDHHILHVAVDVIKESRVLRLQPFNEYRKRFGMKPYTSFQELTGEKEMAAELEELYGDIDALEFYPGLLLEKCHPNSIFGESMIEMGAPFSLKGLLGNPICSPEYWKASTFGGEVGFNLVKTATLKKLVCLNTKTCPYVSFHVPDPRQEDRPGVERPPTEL
Protocol: (§1) The full method is provided in the Supplementary materials.
(§2) Serial dilutions (100, 10, 1, 0.1, and 0.01 µg/mL) of the F. solani extract and the isolated metabolites were prepared and solvated in DMSO, then estimated for their abilities to inhibit the synthesis of prostaglandin using the kits for screening test for COX inhibitors (BioVision, Inc., USA, Mountain View, Catalog # K548-100 and Catalog # K547-100, for COX- […]
(§3) The investigational methodology was carried out following the provider’s recommendations. Arachidonic acid is being converted into prostaglandin (PGH2) by the cyclooxygenase enzyme (COX). During the reduction, the PGF2α formed in PGH2 via stannous chloride was evaluated via ELISA (enzyme-linked immunoassay). This bioassay is based on the competition among an antibody; PGspecific and a cholinesterase conjugate; PG-acetyl. The developed (antibody-PG) was combined with an acetylcholinesterase substrate included in Ellman's reagent. Each sample (20 µL) was used, (10 µL) heme, and (10 µL) enzyme, were combined to the reaction buffer solution (160 µL) formed of (2 mM phenol and 5 mM ethylenediamine tetra acetate (EDTA) in 0.1 M Tris-HCl, pH 8), followed by incubation of the mixture in a water bath at 37 °C for 10 min. Subsequently, starting the COX reaction was done by adding 10 µL of arachidonic acid, with a final concentration of […], to the reaction mixture.
(§4) Later, the COX reactions were ended after 2 min by adding saturated stannous chloride (30 µL), then inoculate for 5 min at room temperature. Afterwards, the PGF2α level was measured using ELISA. Subsequent move to a 96-well plate, inoculate the samples at room temperature for 18 h, then wash the plate to eliminate any residual reagents, followed by the addition of Ellman’s reagent (200 µL) which contains an acetylcholinesterase substrate, and incubation at room temperature for 60 to 90 min. A spectrophotometer with a microplate reader at 410 nm was used to measure the produced color at 410 […]
(§5) The data mean values from three measurements were used to calculate IC50 values. […]

[2] = biological target: T2, recombinant human COX-2 (Homo sapiens, UniProt P35354); assay: biochemical; conditions: for Selectivity index (SI): COX-2 selectivity from COX-1 and COX-2 IC50
T2 sequence (P35354 18-604): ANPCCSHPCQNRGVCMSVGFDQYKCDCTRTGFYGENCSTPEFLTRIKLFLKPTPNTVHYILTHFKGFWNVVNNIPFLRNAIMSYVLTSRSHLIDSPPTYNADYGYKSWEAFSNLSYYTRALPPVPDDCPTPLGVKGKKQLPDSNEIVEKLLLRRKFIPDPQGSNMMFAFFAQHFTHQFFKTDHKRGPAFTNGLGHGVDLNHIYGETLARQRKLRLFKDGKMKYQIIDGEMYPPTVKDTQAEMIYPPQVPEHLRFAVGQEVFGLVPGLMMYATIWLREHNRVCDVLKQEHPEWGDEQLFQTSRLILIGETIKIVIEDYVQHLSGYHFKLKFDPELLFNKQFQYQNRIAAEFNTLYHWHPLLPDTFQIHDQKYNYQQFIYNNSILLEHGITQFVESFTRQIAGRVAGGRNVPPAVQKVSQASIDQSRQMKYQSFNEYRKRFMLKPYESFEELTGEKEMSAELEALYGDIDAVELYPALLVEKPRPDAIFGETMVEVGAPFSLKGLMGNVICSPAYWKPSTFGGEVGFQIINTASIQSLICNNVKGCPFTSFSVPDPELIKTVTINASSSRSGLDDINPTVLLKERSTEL
Protocol: as §1, §2, §3, §4, §5

[3] = biological target: tyrosinase enzyme; assay: Tyrosinase inhibitory assay (L-DOPA substrate, BioVision kit); type: biochemical; conditions: mean ± SEM, triplicate
Source text: The anti-tyrosinase capacities of the F. solani extract together with the six isolated metabolites were investigated via evaluating their inhibitory activities against tyrosinase enzyme. The full method is provided in the Supplementary materials. […]
Tyrosinase inhibitory assay
The anti-tyrosinase capacities of the F. solani extract together with the six isolated metabolites were investigated via evaluating their inhibitory activities against tyrosinase enzyme using the kits for screening test of tyrosinase enzyme inhibition (BioVision, Inc., USA, Mountain View, Catalog # K575-100).
First, all samples were dissolved using DMSO (reference drug, EtOAc extract and the isolated compounds) preparing different concentrations. The assay of tyrosinase inhibition was done as previously reported 3. The mixture of assay composed of test solution (1900 μL) in (0.1 M) buffer phosphate pH 6.8 and freshly prepared enzyme solution (100 μL) which is composed of 15 U/mL in (0.1 M) buffer phosphate pH 6.8. The 30 min. of room temperature after pre-incubation, the reaction was started by adding substrate solution (1000 μL) which composed of L-DOPA (1.5 Mm) in buffer phosphate (0.1 M) pH 6.8. After 7 minutes of room temperature incubation, the mixture of the assay was analyzed for absorbance at […]
510 nm. […] The activity of tyrosinase inhibition
(The activity of the enzyme together with the tested samples). The mean values of the data from three measurements were used to calculate IC50 values.

[4] = mean ± SEM, triplicate, read-out: IC50 COX-1
[5] = mean ± SEM, triplicate, read-out: IC50 COX-2

Row | Compound | IC50 [1, 4] | Selectivity index (SI) [2] | IC50 [2, 5] | IC50 ([3]; listed as 4-hydroxybenzaldehyde) | IC50 ([3]; listed as 4-hydroxybenzaldehyde (1)) | IC50 [3] | IC50 [1] | IC50 ([3]; listed as malic acid) | IC50 [2]
1 | O=Cc1ccc(O)cc1 [4-Hydroxybenzaldehyde (1), 4-hydroxybenzaldehyde] | 25.7 ± 0.55 µM | 2.9 | 8.87 ± 0.26 µM | > 50 µM | 70.6 ± 1.49 µM | – | – | – | –
2 | O=C(O)c1ccc(O)cc1 [4-Hydroxybenzoic acid (2), 4-hydroxybenzoic acid] | 44.5 ± 0.92 µM | – | 28.4 ± 0.76 µM | – | – | 25.4 ± 0.53 µM | – | – | –
3 | O=C(O)CCCCCCCC(=O)O [Azelaic acid (4), azelaic acid] | 11.6 ± 0.29 µM | 5.24 | 2.21 ± 0.06 µM | – | – | 8.75 ± 0.18 µM | – | – | –
4 | CCCCc1ccc(C(=O)O)nc1 [Fusaric acid (6), fusaric acid] | – | 0.8 | 4.81 ± 0.14 µM | – | – | 13.4 ± 0.27 µM | 3.86 ± 0.05 µM | – | –
5 | O=C(O)CC(O)C(=O)O (stereo not drawn) [Malic acid (5), malic acid] | – | – | 10.4 ± 0.3 µM | – | – | 87.5 ± 1.84 µM | 51 ± 0.86 µM | > 50 µM | –
6 | OCCc1ccc(O)cc1 [Tyrosol (3), tyrosol] | – | 4.49 | – | – | – | 11.3 ± 0.24 µM | 23.9 ± 0.38 µM | – | 5.31 ± 0.15 µM
